The text below walks through data of PubChem BioAssay (NCI).

What all share (assay): DTP human tumour cell line panel, 48 h
Experiment [1] deals with HS 578T breast.
The test system of experiment [2] is IGROV1 ovarian.
For experiment [3], the system named is LOX IMVI melanoma.
Experiment [4] deals with M14 melanoma.
Experiment [5] concerns MALME-3M melanoma.
The test system of experiment [6] is MCF7 breast.
In experiment [7] the test system is MDA-MB-231 breast.
Experiment [8] has as its system MOLT-4 leukemia.
Experiment [9] concerns NCI-H226 lung.
Experiment [10] concerns NCI/ADR-RES ovarian.
The subject of experiment [11] is OVCAR-3 ovarian.
In experiment [12] the test system is OVCAR-4 ovarian.
The test system of experiment [13] is OVCAR-5 ovarian.
In experiment [14] the test system is SF-268 CNS.
The subject of experiment [15] is SF-295 CNS.
Experiment [16] deals with SK-MEL-28 melanoma.
The test system of experiment [17] is SN12C renal.
The subject of experiment [18] is SR leukemia.
The test system of experiment [19] is SW-620 colon.
Experiment [20] deals with U251 CNS.

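Values below derive from 48-hour exposures of cells grown in 96-well plates, with endpoints linearly interpolated between the two concentrations bracketing the appropriate inhibition level. Definition used: TGI = concentration required for complete inhibition of growth.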 A value given as a limit tells only on which side of the number the result lay.

As for `CCN1CCC(O)(c2ccc(O)cc2)C(C(=O)c2ccc(O)cc2)C1` (stereo not given), the TGI was greater than 100 µM in experiment [1]; 44 µM in experiment [2]; 27.4 µM in [3]; 36.4 µM in experiment [4]; 38.8 µM in experiment [5]; 10.9 µM in experiment [6]. In addition, the TGI in experiment [7] came to 31.1 µM; in experiment [8], 46 µM; in [9], 61.9 µM; in experiment [10] it was 71 µM; in experiment [11], 32.8 µM; in [12] it was 68.8 µM. For the same compound, the TGI in experiment [13] was 35.6 µM; in [14], greater than 100 µM; in experiment [15], greater than 100 µM; in [16], 31.7 µM; in experiment [17] it was 42 µM; in experiment [18] it was 43.4 µM. Besides, the values for the TGI in experiment [19] and in experiment [20] were 12.3 µM and greater than 100 µM, respectively.

The term TGI denotes the concentration at which net growth stops.
